Laboratory results taken from paper PMC9815576, “Cell-surface protein YwfG of Lactococcus lactis binds to α-1,2-linked mannose” (PLOS ONE, 2023).
Where “and” joins values, the source holds several entries; their conditions need not be identical. Equal values may be shown once. Entries after “also recorded” stand apart in the source; their conditions may differ. Read-outs that look alike come from different tables or passages of the source.

Experiments:
[1] = target: YwfG28–270 (L-type lectin domain of YwfG) (Lactococcus lactis subsp. lactis, UniProt S6FKX6); experiment: Isothermal titration calorimetry (ITC) of sugars, mannan and mannoproteins against YwfG28–270; format: binding, Lactococcus lactis subsp. lactis G50; settings: for Interaction with YwfG28–270 observed by ITC: 100 μM YwfG28–270, 25°C; for ΔH, enthalpy change / ΔS, entropy change: YwfG28–270
Chain of YwfG28–270 (L-type lectin domain of YwfG) (S6FKX6 entry or part of it): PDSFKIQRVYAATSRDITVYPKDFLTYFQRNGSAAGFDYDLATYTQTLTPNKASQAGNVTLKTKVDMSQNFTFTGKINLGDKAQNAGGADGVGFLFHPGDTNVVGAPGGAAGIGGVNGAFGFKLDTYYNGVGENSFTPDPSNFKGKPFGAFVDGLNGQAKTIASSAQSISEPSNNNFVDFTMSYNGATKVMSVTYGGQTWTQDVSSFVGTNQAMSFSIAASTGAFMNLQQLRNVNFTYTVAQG
From the text: (§1) A MicroCal iTC200 system (Malvern Panalytical, Almelo, Netherlands) was used to measure enthalpy changes associated with interactions between the YwfG variants and the following yeast cell-wall components: the monosaccharides D-glucose, D-galactose, D-mannose, D-fucose, N-acetyl-D-glucosamine (GlcNAc), and 2-(acetylamino)-2-deoxy-D-galactose (GalNAc) (Sigma-Aldrich); α-1,2-, α-1,3-, α-1,4-, and α-1,6-mannobiose (Dextra Laboratories, Reading, UK); mannan from S. cerevisiae (Sigma-Aldrich); and yeast mannoproteins.
(§2) A solution of YwfG variant (100 μM YwfG28–270, YwfG28–336, YwfG28–511, or MubR4 in 20 mM Tris-HCl [pH 7.5]) was placed in a 200-μL calorimeter cell, and test solution (10 mM for monosaccharides, 2 mM for monosaccharides and mannobioses, 10 mg mL^−1 for yeast mannan, OD280 1.0 for mannoproteins) was loaded into the injection syringe. The test solution was titrated into the sample cell as a sequence of 20 injections of 2-μL aliquots each. All experiments were performed at 25°C.

YwfG28–336 = experiment: ITC of sugars against YwfG28–336; format: binding, Lactococcus lactis subsp. lactis G50; settings: 100 μM YwfG28–336, 25°C
From the text: as §1, §2

YwfG28–511 = experiment: ITC of sugars against YwfG28–511; format: binding, Lactococcus lactis subsp. lactis G50; settings: 100 μM YwfG28–511, 25°C
From the text: as §1, §2

[2] = test system: MubR4 (YwfG residues 860–1034); experiment: ITC of monosaccharides against MubR4; format: binding, Lactococcus lactis subsp. lactis G50; settings: 100 μM MubR4, 25°C
From the text: as §1, §2

yeast X2180-1A = experiment: Inhibition by sugars of yeast cell aggregation induced by YwfG variants; format: cell-based, Saccharomyces cerevisiae; settings: sugar 1 mM as printed
Experimental: Saccharomyces cerevisiae X2180-1A was cultured in YPD medium to an OD600 of 0.6.

[3] = test system: legume (L)-type lectin–like module of SraP; design: method as in PMID 24901708; settings: cited from earlier work
yeast cells = experiment: Aggregation of yeast cells by lactococcal cells; format: cell-based, Saccharomyces cerevisiae; settings: 1 mM
Experimental: Lactococcal cells were cultured in CDMG and suspended in PBS to an OD600 of 1.0.

[4] = ITC, 25°C, 100 μM YwfG28–270 in 20 mM Tris-HCl pH 7.5, D-mannose: fixed stoichiometry (N = 1)
[5] = ITC, 25°C, D-mannose: fixed stoichiometry (N = 1)
[6] = ITC, 25°C, 100 μM YwfG28–270 in 20 mM Tris-HCl pH 7.5, D-mannose: fixed stoichiometry (N = 1), read-out: KD, dissociation constant

Row | SMILES | Interaction with YwfG28–270 observed by ITC [1] | Interaction with YwfG28–336 observed by ITC (YwfG28–336) | Interaction with YwfG28–511 observed by ITC (YwfG28–511) | Interaction with MubR4 observed by ITC [2] | Kd [1] | N (sites), stoichiometry [1, 4] | ΔH, enthalpy change [1, 5] | ΔS, entropy change [1, 5] | Inhibition of aggregation induced by YwfG28–336 (yeast X2180-1A) | Inhibition of aggregation induced by YwfG28–511 (yeast X2180-1A) | Binding to the L-type lectin–like module of SraP [3] | Inhibition of aggregation induced by L. lactis G50 (yeast cells) | Kd [1, 6]
1 | C[C@H]1OC(O)[C@H](O)[C@@H](O)[C@H]1O (stereo partly drawn) [D-fucose] | only combination of variant and monosaccharide that showed an interaction was YwfG28–270 with D-mannose | only combination of variant and monosaccharide that showed an interaction was YwfG28–270 with D-mannose | only combination of variant and monosaccharide that showed an interaction was YwfG28–270 with D-mannose | only combination of variant and monosaccharide that showed an interaction was YwfG28–270 with D-mannose |  |  |  |  |  |  |  |  | 
2 | O=C[C@H](O)[C@@H](O)[C@@H](O)[C@H](O)CO [D-galactose] | only combination of variant and monosaccharide that showed an interaction was YwfG28–270 with D-mannose | only combination of variant and monosaccharide that showed an interaction was YwfG28–270 with D-mannose | only combination of variant and monosaccharide that showed an interaction was YwfG28–270 with D-mannose | only combination of variant and monosaccharide that showed an interaction was YwfG28–270 with D-mannose |  |  |  |  |  |  |  |  | 
3 | OC[C@H]1OC(O)[C@H](O)[C@@H](O)[C@@H]1O (stereo partly drawn) [D-glucose] | only combination of variant and monosaccharide that showed an interaction was YwfG28–270 with D-mannose | only combination of variant and monosaccharide that showed an interaction was YwfG28–270 with D-mannose | only combination of variant and monosaccharide that showed an interaction was YwfG28–270 with D-mannose | only combination of variant and monosaccharide that showed an interaction was YwfG28–270 with D-mannose |  |  |  |  |  |  |  |  | 
4 | OC[C@H]1OC(O)[C@@H](O)[C@@H](O)[C@@H]1O (stereo partly drawn) [D-mannose] | only interaction observed; also recorded: showed an interaction | only combination of variant and monosaccharide that showed an interaction was YwfG28–270 with D-mannose | only combination of variant and monosaccharide that showed an interaction was YwfG28–270 with D-mannose | only combination of variant and monosaccharide that showed an interaction was YwfG28–270 with D-mannose | 500 ± 37 µM | (1.00) sites | -2.098 ± 0.08359 kcal/mol | 8.07 cal/mol/deg | inhibited | not by YwfG28–270 or YwfG28–511 was inhibited |  |  | 
5 | CC(=O)N[C@@H](C=O)[C@@H](O)[C@@H](O)[C@H](O)CO [GalNAc, 2-(acetylamino)-2-deoxy-D-galactose] | only combination of variant and monosaccharide that showed an interaction was YwfG28–270 with D-mannose | only combination of variant and monosaccharide that showed an interaction was YwfG28–270 with D-mannose | only combination of variant and monosaccharide that showed an interaction was YwfG28–270 with D-mannose | only combination of variant and monosaccharide that showed an interaction was YwfG28–270 with D-mannose |  |  |  |  |  |  |  |  | 
6 | CC(=O)N[C@@H]1[C@@H](O)[C@H](O)[C@@H](CO)O[C@@H]1O [GlcNAc, N-acetyl-D-glucosamine] | only combination of variant and monosaccharide that showed an interaction was YwfG28–270 with D-mannose | only combination of variant and monosaccharide that showed an interaction was YwfG28–270 with D-mannose | only combination of variant and monosaccharide that showed an interaction was YwfG28–270 with D-mannose | only combination of variant and monosaccharide that showed an interaction was YwfG28–270 with D-mannose |  |  |  |  |  |  |  |  | 
7 | CC(=O)N[C@H]1[C@H]([C@H](O)[C@H](O)CO)OC(O)(C(=O)O)C[C@@H]1O (some centres unmarked) [N-acetylneuraminic acid] |  |  |  |  |  |  |  |  |  |  | specifically binds |  | 
8 | CO[C@H]1O[C@H](CO)[C@@H](O)[C@H](O)[C@@H]1O [methyl α-D-mannoside] | only combination of variant and monosaccharide that showed an interaction was YwfG28–270 with D-mannose | only combination of variant and monosaccharide that showed an interaction was YwfG28–270 with D-mannose | only combination of variant and monosaccharide that showed an interaction was YwfG28–270 with D-mannose | only combination of variant and monosaccharide that showed an interaction was YwfG28–270 with D-mannose |  |  |  |  | inhibited | not by YwfG28–270 or YwfG28–511 was inhibited |  | inhibited | 
9 | OC[C@H]1O[C@H](O[C@@H]2C(O)O[C@H](CO)[C@@H](O)[C@@H]2O)[C@@H](O)[C@@H](O)[C@@H]1O (stereo partly drawn) [α-1,2-mannobiose] | bound | No binding | No binding |  |  | 1.19 ± 0.0104 sites | -5.236 ± 0.06207 kcal/mol | 2.86 cal/mol/deg | clearly inhibited | clearly inhibited |  |  | 34 µM and 34.4 µM
10 | OC[C@H]1O[C@H](O[C@H]2[C@H](O)[C@@H](CO)OC(O)[C@H]2O)[C@@H](O)[C@@H](O)[C@@H]1O (stereo partly drawn) [α-1,3-mannobiose] | bound | No binding | No binding |  |  | 0.757 ± 0.148 sites | -6.073 ± 1.387 kcal/mol | −3.15 cal/mol/deg | weakly inhibited | weakly inhibited |  |  | 172 ± 21 µM
11 | OC[C@H]1O[C@H](O[C@H]2[C@H](O)[C@H](O)C(O)O[C@@H]2CO)[C@@H](O)[C@@H](O)[C@@H]1O (stereo partly drawn) [α-1,4-mannobiose] | bound | No binding | No binding |  |  | 1.82 ± 0.171 sites | -2.206 ± 0.3097 kcal/mol | 9.55 cal/mol/deg | weakly inhibited | weakly inhibited |  |  | 328 ± 91 µM
12 | OC[C@H]1O[C@H](OC[C@H]2O[C@H](O)[C@@H](O)[C@@H](O)[C@@H]2O)[C@@H](O)[C@@H](O)[C@@H]1O [α-1,6-mannobiose] | bound | No binding | No binding |  |  | 1.21 ± 0.0839 sites | -4.235 ± 0.3728 kcal/mol | 2.62 cal/mol/deg | weakly inhibited | weakly inhibited |  |  | 210 ± 13 µM
